PMC6492180, “Cytome micronucleus assays with a metabolically competent human derived liver cell line (Huh6): A promising approach for routine testing of chemicals?” (Environmental and Molecular Mutagenesis, 2018)
Where two headings read alike, the source gives them in different places. Marks after values point to notes of the source that are not given here.

Assays:
[1] = ref IARC (2018); cited from earlier work
[2] = tested on: HepG2; details: HepG2, cited from earlier work
[3] = tested on: Human lymphocytes; details: Human lymphocytes, cited from earlier work
[4] = tested on: Huh6 cells; details: for Lowest effective concentration (LOEC) in micronucleus experiments: Huh6
Protocol: All experiments were performed in duplicate.
3.8–4.0 × 10^5 cells per well were seeded into 6‐well plates with 3 mL of RPMI (4% FBS) for 12 hr, then dilutions of stock solutions of the diagnostic mutagens were added for different time periods (4, 24, and 48 hr). In each experimental series solvent controls were included. Subsequently, the cells were washed twice with 3.0 mL medium. […] Finally, the cells were washed and trypsinised. Afterwards the cells were washed twice with 8.0 mL RPMI and collected on slides by cytocentrifugation (600 rpm, 5 min). The slides were air dried, fixed, and stained with DiffQuick according to the instructions of the manufacturer. For each experimental point, two cultures were tested per dose. From each culture ≥1,000 BN cells were evaluated under 400‐fold magnification (Nikon Photophot‐FXA, Tokyo, Japan). At least 2,000 binucleated cells were analyzed per dose for the determination of the different nuclear anomalies (MN, NBuds, and NBs).
The experiments were performed as described in the previous chapter. The cells were exposed only to one dose of the different mutagens and were cultivated after the seeding in 6‐well plates which contained 4% or 10% FBS in RPMI, respectively.
Data were evaluated by generalized linear model with Poisson counts. Chi‐square tests for overdispersion were applied. […] P values ≤0.05 were considered statistically significant.
^150-60 000 cells were seeded in 6 well plates with 3 ml RPMI (4% FBS), subsequently different solutions of the test compound (dissolved in medium) were added. After treatment for different time periods, the cells was washed and processed as described in the Material and Method section. […] From each culture 1000 binoculated cells were evaluated. BN-MN – number of micronucleated cells; MN - total number of micronuclei; CBPI – cytokinesis-block proliferation index
^1The experiments were conducted essentially as described in the footnote of Table S1A-I. *p≤0.05

[5] = tested on: HepaRG; details: HepaRG; ref Le Hegarat et al., 2010; cited from earlier work
[6] = 10% FBS, 24 hr treatment, 50 µM
[7] = 10% FBS, 24 hr treatment, 100 µM
[8] = 10% FBS, 24 hr treatment, 0.5 µg/ml
[9] = 10% FBS, 24 hr treatment, 1 µg/ml

Cn1c(N)nc2c3cccnc3ccc21 [IQ, 2‐Amino‐3‐methyl‐3H‐imidazo[4,5‐f]quinoline]
IARC classification [1]: Formation of guanine adducts, formation of DNA‐reactive metabolites which cause DNA‐adducts; activation: CYP1A2 and NAT; detoxification: GSTs and SULTs; IARC: Group 2A
Lowest effective concentration (LOEC) in micronucleus experiments ([2]; ref Knasmuller et al., 1999): 300.0 (Knasmuller et al., 1999) μM
Lowest effective concentration (LOEC) in micronucleus experiments ([3]; + S9, ref Fowler et al., 2014): 2200.0 µM
Lowest effective concentration (LOEC) in micronucleus experiments ([3]; + S9, ref Katic et al., 2010): 250.0 µM
MN effects after 24 hr (or longer) compared with 4 hr treatment (in words) ([4]; 4% FBS): more pronounced effects
BN-MN (number of micronucleated cells) ([4]; 4% FBS, 4hrs, 25 µM): 16.0 ± 2.8 ‰
Bridges ([4]; 4% FBS, 4hrs, 25 µM): 0.5 ± 0.7 ‰
Buds ([4]; 4% FBS, 4hrs, 25 µM): 17.5 ± 2.1 ‰
CBPI ([4]; 4% FBS, 4hrs, 25 µM): 1.9 ± 0.1
MN (total number of micronuclei) ([4]; 4% FBS, 4hrs, 25 µM): 16.0 ± 2.8 ‰
BN-MN (number of micronucleated cells) ([4]; 4% FBS, 4hrs, 50 µM): 18.0 ± 4.2 ‰
Bridges ([4]; 4% FBS, 4hrs, 50 µM): 0.5 ± 0.7 ‰
Buds ([4]; 4% FBS, 4hrs, 50 µM): 16.5 ± 0.7 ‰
CBPI ([4]; 4% FBS, 4hrs, 50 µM): 1.8 ± 0.1
MN (total number of micronuclei) ([4]; 4% FBS, 4hrs, 50 µM): 19.0 ± 4.2 ‰
BN-MN (number of micronucleated cells) ([4]; 4% FBS, 4hrs, 100 µM): 23.5 ± 5.0* ‰
Bridges ([4]; 4% FBS, 4hrs, 100 µM): 1.5 ± 0.7 ‰
Buds ([4]; 4% FBS, 4hrs, 100 µM): 21.5 ± 2.1* ‰
CBPI ([4]; 4% FBS, 4hrs, 100 µM): 1.9 ± 0.0
MN (total number of micronuclei) ([4]; 4% FBS, 4hrs, 100 µM): 24.5 ± 5.0* ‰
BN-MN (number of micronucleated cells) ([4]; 4% FBS, 24hrs, 25 µM): 18.5 ± 0.7 ‰
Bridges ([4]; 4% FBS, 24hrs, 25 µM): 0.0 ± 0.0 ‰
Buds ([4]; 4% FBS, 24hrs, 25 µM): 10.5 ± 2.1 ‰
CBPI ([4]; 4% FBS, 24hrs, 25 µM): 1.9 ± 0.0
MN (total number of micronuclei) ([4]; 4% FBS, 24hrs, 25 µM): 19.5 ± 0.7 ‰
BN-MN (number of micronucleated cells) ([4]; 4% FBS, 24hrs, 50 µM): 26.0 ± 1.4* ‰
Bridges ([4]; 4% FBS, 24hrs, 50 µM): 2.0 ± 0.0 ‰
Buds ([4]; 4% FBS, 24hrs, 50 µM): 18.5 ± 2.1* ‰
CBPI ([4]; 4% FBS, 24hrs, 50 µM): 1.7 ± 0.0
MN (total number of micronuclei) ([4]; 4% FBS, 24hrs, 50 µM): 26.5 ± 0.7 ‰
BN-MN (number of micronucleated cells) ([4]; 4% FBS, 24hrs, 100 µM): 39.0 ± 5.7* ‰
Bridges ([4]; 4% FBS, 24hrs, 100 µM): 5.5 ± 0.7 ‰
Buds ([4]; 4% FBS, 24hrs, 100 µM): 32.5 ± 5.0* ‰
CBPI ([4]; 4% FBS, 24hrs, 100 µM): 2.0 ± 0.1
MN (total number of micronuclei) ([4]; 4% FBS, 24hrs, 100 µM): 44.0 ± 1.4* ‰
BN-MN (number of micronucleated cells) ([4]; 4% FBS, 48hrs, 25 µM): 20.5 ± 2.1 ‰
Bridges ([4]; 4% FBS, 48hrs, 25 µM): 0.0 ± 0.0 ‰
Buds ([4]; 4% FBS, 48hrs, 25 µM): 22.0 ± 4.2 ‰
CBPI ([4]; 4% FBS, 48hrs, 25 µM): 1.9 ± 0.1
MN (total number of micronuclei) ([4]; 4% FBS, 48hrs, 25 µM): 21.5 ± 2.1 ‰
BN-MN (number of micronucleated cells) ([4]; 4% FBS, 48hrs, 50 µM): 32.0 ± 5.7* ‰
Bridges ([4]; 4% FBS, 48hrs, 50 µM): 1.0 ± 0.0 ‰
Buds ([4]; 4% FBS, 48hrs, 50 µM): 29.5 ± 2.1* ‰
CBPI ([4]; 4% FBS, 48hrs, 50 µM): 1.8 ± 0.1
MN (total number of micronuclei) ([4]; 4% FBS, 48hrs, 50 µM): 32.5 ± 6.4* ‰
BN-MN (number of micronucleated cells) ([4]; 4% FBS, 48hrs, 100 µM): 40.0 ± 2.8* ‰
Bridges ([4]; 4% FBS, 48hrs, 100 µM): 3.0 ± 1.4 ‰
Buds ([4]; 4% FBS, 48hrs, 100 µM): 35.5 ± 3.5* ‰
CBPI ([4]; 4% FBS, 48hrs, 100 µM): 1.7 ± 0.1
MN (total number of micronuclei) ([4]; 4% FBS, 48hrs, 100 µM): 47.5 ± 3.5* ‰
BN-MN (number of micronucleated cells) [4, 6]: 47.5 ± 3.5*
Bridges [4, 6]: 0 ± 0.0
Buds [4, 6]: 42 ± 2.8
CBPI [4, 6]: 1.9 ± 0.0
MN (total number of micronuclei) [4, 6]: 51.0 ± 1.4*
BN-MN (number of micronucleated cells) [4, 7]: 63.5 ± 6.4*
Bridges [4, 7]: 0.5 ± 0.7
Buds [4, 7]: 49 ± 1.4
CBPI [4, 7]: 1.8 ± 0.1
MN (total number of micronuclei) [4, 7]: 68.5 ± 5.0*
MN frequencies with 10% serum compared with 4% serum (in words) ([4]; 24 hr treatment): stronger effects
Lowest effective concentration (LOEC) in micronucleus experiments [4]: 50.0 µM
Lowest effective concentration (LOEC) in micronucleus experiments [5]: Negative
NOEC (highest no observable effect concentration tested) [5]: 500 µM

[NH2][Pt]([NH2])([Cl])[Cl] [CDDP, Cisplatin]
IARC classification [1]: Crosslinking agent; causes different types of DNA damage (gene mutations and CA); IARC: Group 2A
Lowest effective concentration (LOEC) in micronucleus experiments ([2]; ref Gajski et al., 2016): 0.1 (Gajski et al., 2016) μg/mL
Lowest effective concentration (LOEC) in micronucleus experiments ([3]; ref Fowler et al., 2014): 1.0 (Fowler et al., 2014) μg/mL
MN effects after 24 hr (or longer) compared with 4 hr treatment (in words) ([4]; 4% FBS): similar
Toxicity in MN experiment (Figure 3) ([4]; 4% FBS, 1.0 μg/ml, 48h): Toxic
BN-MN (number of micronucleated cells) ([4]; 4% FBS, 4hrs, 0.05 µg/ml): 16.0 ± 1.4 ‰
Bridges ([4]; 4% FBS, 4hrs, 0.05 µg/ml): 0.0 ± 0.0 ‰
Buds ([4]; 4% FBS, 4hrs, 0.05 µg/ml): 15.5 ± 2.1 ‰
CBPI ([4]; 4% FBS, 4hrs, 0.05 µg/ml): 1.7 ± 0.1
MN (total number of micronuclei) ([4]; 4% FBS, 4hrs, 0.05 µg/ml): 16.0 ± 1.4 ‰
BN-MN (number of micronucleated cells) ([4]; 4% FBS, 4hrs, 0.1 µg/ml): 19.5 ± 0.7 ‰
Bridges ([4]; 4% FBS, 4hrs, 0.1 µg/ml): 0.0 ± 0.0 ‰
Buds ([4]; 4% FBS, 4hrs, 0.1 µg/ml): 16.5 ± 2.1 ‰
CBPI ([4]; 4% FBS, 4hrs, 0.1 µg/ml): 1.6 ± 0.1
MN (total number of micronuclei) ([4]; 4% FBS, 4hrs, 0.1 µg/ml): 20.0 ± 1.4 ‰
BN-MN (number of micronucleated cells) ([4]; 4% FBS, 4hrs, 0.5 µg/ml): 19.5 ± 0.7 ‰
Bridges ([4]; 4% FBS, 4hrs, 0.5 µg/ml): 0.0 ± 0.0 ‰
Buds ([4]; 4% FBS, 4hrs, 0.5 µg/ml): 19.0 ± 1.4* ‰
CBPI ([4]; 4% FBS, 4hrs, 0.5 µg/ml): 1.8 ± 0.1
MN (total number of micronuclei) ([4]; 4% FBS, 4hrs, 0.5 µg/ml): 21.5 ± 0.7 ‰
BN-MN (number of micronucleated cells) ([4]; 4% FBS, 4hrs, 1 µg/ml): 31.5 ± 5.0* ‰
Bridges ([4]; 4% FBS, 4hrs, 1 µg/ml): 3.5 ± 0.7 ‰
Buds ([4]; 4% FBS, 4hrs, 1 µg/ml): 34.0 ± 5.7* ‰
CBPI ([4]; 4% FBS, 4hrs, 1 µg/ml): 1.5 ± 0.1
MN (total number of micronuclei) ([4]; 4% FBS, 4hrs, 1 µg/ml): 33.5 ± 5.0* ‰
BN-MN (number of micronucleated cells) ([4]; 4% FBS, 24hrs, 0.1 µg/ml): 13.5 ± 0.7 ‰
Bridges ([4]; 4% FBS, 24hrs, 0.1 µg/ml): 0.0 ± 0.0 ‰
Buds ([4]; 4% FBS, 24hrs, 0.1 µg/ml): 15.5 ± 0.7 ‰
CBPI ([4]; 4% FBS, 24hrs, 0.1 µg/ml): 1.8 ± 0.1
MN (total number of micronuclei) ([4]; 4% FBS, 24hrs, 0.1 µg/ml): 14.0 ± 0.0 ‰
BN-MN (number of micronucleated cells) ([4]; 4% FBS, 24hrs, 0.5 µg/ml): 25.5 ± 0.7* ‰
Bridges ([4]; 4% FBS, 24hrs, 0.5 µg/ml): 2.5 ± 0.7 ‰
Buds ([4]; 4% FBS, 24hrs, 0.5 µg/ml): 30.5 ± 2.1* ‰
CBPI ([4]; 4% FBS, 24hrs, 0.5 µg/ml): 2.0 ± 0.0
MN (total number of micronuclei) ([4]; 4% FBS, 24hrs, 0.5 µg/ml): 34.0 ± 1.4* ‰
BN-MN (number of micronucleated cells) ([4]; 4% FBS, 24hrs, 1 µg/ml): 29.5 ± 0.7* ‰
Bridges ([4]; 4% FBS, 24hrs, 1 µg/ml): 5.0 ± 1.4 ‰
Buds ([4]; 4% FBS, 24hrs, 1 µg/ml): 36.0 ± 2.8* ‰
CBPI ([4]; 4% FBS, 24hrs, 1 µg/ml): 1.8 ± 0.0
MN (total number of micronuclei) ([4]; 4% FBS, 24hrs, 1 µg/ml): 35.0 ± 1.4* ‰
BN-MN (number of micronucleated cells) ([4]; 4% FBS, 48hrs, 0.1 µg/ml): 16.5 ± 0.7 ‰
Bridges ([4]; 4% FBS, 48hrs, 0.1 µg/ml): 0.0 ± 0.0 ‰
Buds ([4]; 4% FBS, 48hrs, 0.1 µg/ml): 21.5 ± 2.1 ‰
CBPI ([4]; 4% FBS, 48hrs, 0.1 µg/ml): 1.6 ± 0.0
MN (total number of micronuclei) ([4]; 4% FBS, 48hrs, 0.1 µg/ml): 17.0 ± 1.4 ‰
CBPI ([4]; 4% FBS, 48hrs, 1 µg/ml): 1.2 ± 0.1
BN-MN (number of micronucleated cells) ([4]; 4% FBS, 48hrs, […]): 20.0 ± 1.4 ‰
MN (total number of micronuclei) ([4]; 4% FBS, 48hrs, […]): 20.5 ± 0.7 ‰
BN-MN (number of micronucleated cells) [4, 8]: 38.0 ± 1.4*
Bridges [4, 8]: 0.5 ± 0.7
Buds [4, 8]: 32.0 ± 5.7*
CBPI [4, 8]: 1.9 ± 0.0
MN (total number of micronuclei) [4, 8]: 40.5 ± 0.7*
BN-MN (number of micronucleated cells) [4, 9]: 46.5 ± 2.1*
Buds [4, 9]: 49.0 ± 2.8*
CBPI [4, 9]: 1.9 ± 0.1
MN (total number of micronuclei) [4, 9]: 50.0 ± 1.4*
MN frequencies with 10% serum compared with 4% serum (in words) ([4]; 24 hr treatment): pronounced increase
Lowest effective concentration (LOEC) in micronucleus experiments [4]: 0.5 µg/mL
